According to ChEMBL document CHEMBL3774323, “Stimulation of cortical bone formation with thienopyrimidine based inhibitors of Notum Pectinacetylesterase” (Bioorg Med Chem Lett, 2016):
pEC50, pIC50: −log10 of the molar value.

Key:
[1] = molecular target: T1, Palmitoleoyl-protein carboxylesterase NOTUM (Homo sapiens, UniProt Q6P988); experiment: Inhibition of human notum pectinacetylesterase expressed in 293F cells after 30 mins by TCF/LEF cell sensor assay; format: cell-based
T1 sequence (Q6P988 whole entry): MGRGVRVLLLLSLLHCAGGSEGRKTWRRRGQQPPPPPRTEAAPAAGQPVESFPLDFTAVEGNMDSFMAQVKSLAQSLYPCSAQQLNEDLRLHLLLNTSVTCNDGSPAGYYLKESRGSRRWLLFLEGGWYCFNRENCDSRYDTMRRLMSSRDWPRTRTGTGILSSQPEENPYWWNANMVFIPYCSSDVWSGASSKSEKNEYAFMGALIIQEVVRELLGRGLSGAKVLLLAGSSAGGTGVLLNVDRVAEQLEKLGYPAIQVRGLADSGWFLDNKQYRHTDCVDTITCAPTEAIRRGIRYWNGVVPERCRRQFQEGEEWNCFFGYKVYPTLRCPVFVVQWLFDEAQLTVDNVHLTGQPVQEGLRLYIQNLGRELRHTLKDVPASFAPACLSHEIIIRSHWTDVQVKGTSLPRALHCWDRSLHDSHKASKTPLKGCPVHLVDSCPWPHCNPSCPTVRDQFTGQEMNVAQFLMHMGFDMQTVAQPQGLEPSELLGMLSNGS

[2] = molecular target: T2, Palmitoleoyl-protein carboxylesterase NOTUM (Mus musculus, UniProt Q8R116); experiment: Inhibition of mouse notum pectinacetylesterase expressed in 293F cells after 30 mins by TCF/LEF cell sensor assay; format: cell-based
T2 sequence (Q8R116 whole entry): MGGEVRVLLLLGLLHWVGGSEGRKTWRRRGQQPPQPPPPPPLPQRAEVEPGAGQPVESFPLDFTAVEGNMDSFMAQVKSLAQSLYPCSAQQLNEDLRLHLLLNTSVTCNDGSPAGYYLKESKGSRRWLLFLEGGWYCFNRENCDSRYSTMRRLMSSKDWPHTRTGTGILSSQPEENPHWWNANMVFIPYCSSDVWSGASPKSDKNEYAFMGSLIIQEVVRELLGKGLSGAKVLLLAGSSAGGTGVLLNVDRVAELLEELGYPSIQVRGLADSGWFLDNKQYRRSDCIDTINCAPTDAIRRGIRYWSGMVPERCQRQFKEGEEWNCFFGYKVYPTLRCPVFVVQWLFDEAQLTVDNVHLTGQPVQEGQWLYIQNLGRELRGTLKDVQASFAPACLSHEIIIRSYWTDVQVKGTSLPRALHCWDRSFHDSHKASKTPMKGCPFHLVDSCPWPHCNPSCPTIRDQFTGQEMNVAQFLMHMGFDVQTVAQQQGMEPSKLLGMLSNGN

[3] = Inhibition of human/mouse notum pectinacetylesterase using OPTS as substrate by fluorimetric assay
Mus musculus = experiment: Volume of distribution at steady state in mouse at 10 mg/kg, po; format: ADME, organism-based; conditions: in vivo
[4] = AUC in mouse at 10 mg/kg, po; format: ADME, organism-based; conditions: in vivo
[5] = Clearance in mouse at 10 mg/kg, po; format: ADME, organism-based; conditions: in vivo
[6] = Oral bioavailability in mouse at 10 mg/kg; format: ADME, organism-based; conditions: in vivo
[7] = Cmax in mouse at 10 mg/kg, po; format: ADME, organism-based; design: dose 10 mg/kg, route oral; conditions: in vivo

SMILES | pEC50 [1] | pEC50 [2] | pIC50 [3] | also measured
Cc1c(Cl)sc2ncnc(SCC(=O)O)c12 | 6.05 | 5.59 |  | 
Cc1sc2c(SCC(=O)O)ncnc2c1Cl | 5.71 | 5.26 |  | 
Cc1c(Cl)sc2c(SCC(=O)O)ncnc12 | 6.36 | 5.84 |  | 
O=C(O)CSc1ncnc2sc(C3CC3)c(Cl)c12 | 6.60 | 6.00 |  | 
O=C(O)CSc1ncnc2[nH]ccc12 |  |  | 4.82 | 
Cc1sc2ncnc(SCC(=O)NO)c2c1C | 6.25 |  | 8.70 | 
O=C(O)CSc1ncnc2c(C3CC3)c(C(F)(F)F)sc12 | 7.92 | 7.37 |  | 
CC(C)c1sc2ncnc(SCC(=O)O)c2c1Cl | 6.32 | 6.08 |  | 
Cc1sc2ncnc(SCC(=O)c3c[nH]c(C(=O)N4CCCC4)c3)c2c1C | 6.55 |  | 8.00 | 
Cc1sc2ncnc(SCC(=O)NS(C)(=O)=O)c2c1C | 5.84 |  | 7.96 | 
Cc1sc2c(SCC(=O)O)ncnc2c1C1CC1 | 6.94 | 6.39 |  | 
Cc1csc2c(SCC(=O)O)ncnc12 |  |  | 6.71 | 
COC(=O)CSc1ncnc2sc(C)c(C)c12 | 6.35 |  | 8.70 | 
O=C(O)CSc1ncnc2sccc12 |  |  | 5.55 | 
O=C(O)CSc1ncnc2c(C3CC3)c(Cl)sc12 |  | 7.26 |  | Vdss (Mus musculus): 0.13 L/kg
Cc1sc2ncnc(SCC(=O)c3c[nH]c(CNS(=O)(=O)C4CC4)c3)c2c1C | 6.77 |  | 8.70 | 
O=C(O)CSc1ncnc2[nH]ncc12 |  |  | 4.82 | 
CCc1sc2ncnc(SCC(=O)O)c2c1Cl | 6.41 | 5.84 |  | 
Cc1sc2ncnc(SCC(=O)NC#N)c2c1C | 6.40 |  | 8.70 | 

SMILES | pEC50 [1] | pEC50 [2] | pIC50 [3] | also measured
O=C(O)CSc1ncnc2ccccc12 |  |  | 5.92 | 
Cc1sc2ncnc(SCC(=O)O)c2c1Br | 6.68 | 6.43 |  | 
O=C(O)CSc1ncnc2scnc12 |  |  | 4.82 | 
Cc1sc2ncnc(SCC(=O)O)c2c1C |  | 5.99 | 8.70 | 
Cc1sc2ncnc(SCC(=O)c3ccc(CNC(=O)C(C)C)o3)c2c1C | 6.68 |  | 8.22 | 
Cc1c(Br)sc2c(SCC(=O)O)ncnc12 | 6.38 | 5.87 |  | 
Cc1sc2ncnc(SCC(=O)c3ccc(CNC(=O)C4CC4)o3)c2c1C | 6.60 |  | 8.30 | 
CNC(=O)CSc1ncnc2sc(C)c(C)c12 | 6.10 |  | 7.57 | 
Cc1csc2ncnc(SCC(=O)O)c12 |  |  | 7.04 | 
Cc1sc2ncnc(SCC(N)=O)c2c1C | 6.07 |  | 8.70 | 
Cc1cc2c(SCC(=O)O)ncnc2s1 |  |  | 6.82 | 
CCc1sc2ncnc(SCC(=O)O)c2c1C | 6.08 | 5.58 |  | 
CCCc1sc2ncnc(SCC(=O)O)c2c1Cl | 7.06 | 6.47 |  | 
Cc1sc2ncnc(SCC(=O)O)c2c1Cl | 6.97 | 6.39 |  | Vdss (Mus musculus): 0.16 L/kg; AUC [4]: 515 µM·h; CL/F [5]: 1.22 mL/min/kg; bioavailability [6]: 95%; Cmax [7]: 157 µM
Cc1c(Br)sc2ncnc(SCC(=O)O)c12 | 6.84 | 6.31 |  | 
CCc1c(C)sc2ncnc(SCC(=O)O)c12 | 4.66 | 4.18 |  | 
O=C(O)CSc1ncnc2sc3c(c12)CCCC3 |  |  | 6.21 | 
Cc1sc2c(SCC(=O)O)ncnc2c1C | 6.06 | 5.35 |  | 
